Test results: patent US20230416196A1, “DIMER OF BIGUANIDINES AND THEIR THERAPEUTIC USES” (INSTITUT CURIE, priority 2020, published 2023)
Structures can show the parent of a compound that is named as a salt.

Columns and labels:
[1] = tested on: U937 cells; test: Cell viability assay (CellTiter-Blue) on lymphoma cell line U937; format: cell-based; conditions: Homo sapiens, U-937, 72 h treatment
Description: Cell culture. U-937 cells were grown in an incubator equilibrated at 37° C. with 5% CO2, grown to confluence and split with Trypsin/EDTA (Gibco, […]01) once or twice a week according to confluence. U-937 (ATCC, HTB-132) were cultured in RPMI 1640 GLUTAMAX (ThermoFisher Scientific, 61870044) supplemented with 10% Fetal Bovine Serum (FBS, Gibco, 10270-106) and Penicillin-Streptomycin mixture (BioWhittaker/Lonza, DE17-602E). […] Peripheral blood samples were collected from distinct healthy donors (Etablissement Français du Sang). Pan monocytes were isolated by negative magnetic sorting using microbeads according to the manufacturer's instructions (Miltenyi Biotec, 130-096-537), and cultured in RPMI 1640 supplemented with glutamine (Thermo Fisher Scientific, 61870010), 10% fetal bovine serum and exposed to granulocyte-macrophage colony-stimulating factor (GM-CSF, Miltenyi Biotec, 130-093-866, 100 ng/mL) to induce differentiation into macrophages (MDM). […] Cell viability assay (IC50). Cell viability assay was carried out by plating 1000 cells/well in 96-well plates. Cells were treated for 72 h in a range between to 25 nM and […] using serial dilutions. The inventors followed the manufacturer's protocol. In brief, CellTiter-Blue® reagent (G8081, Promega) was added after 72 h treatment and cells were incubated for 3 h before recording fluorescence intensities (λex. 560/20 nm; λem. 590/10 nm) using a Perkin Elmer Wallac 1420 Victor2 Microplate Reader.

[2] = tested on: macrophage activation; test: Macrophage activation, copper(I)-targeting agents; format: cell-based
[3] = tested on: activated macrophages (act. MDM), CD86 activation marker; test: CD86 macrophage activation marker by flow cytometry in LPS/IFNγ-activated monocyte-derived macrophages (Example 4); format: cell-based, human; conditions: LCCs at 10 μM, 24 h co-treatment; several values per compound
Description: Cell culture. U-937 cells were grown in an incubator equilibrated at 37° C. with 5% CO2, grown to confluence and split with Trypsin/EDTA (Gibco, […]01) once or twice a week according to confluence. U-937 (ATCC, HTB-132) were cultured in RPMI 1640 GLUTAMAX (ThermoFisher Scientific, 61870044) supplemented with 10% Fetal Bovine Serum (FBS, Gibco, 10270-106) and Penicillin-Streptomycin mixture (BioWhittaker/Lonza, DE17-602E). […] Peripheral blood samples were collected from distinct healthy donors (Etablissement Français du Sang). Pan monocytes were isolated by negative magnetic sorting using microbeads according to the manufacturer's instructions (Miltenyi Biotec, 130-096-537), and cultured in RPMI 1640 supplemented with glutamine (Thermo Fisher Scientific, 61870010), 10% fetal bovine serum and exposed to granulocyte-macrophage colony-stimulating factor (GM-CSF, Miltenyi Biotec, 130-093-866, 100 ng/mL) to induce differentiation into macrophages (MDM). […] Flow cytometry. Cells were washed with ice-cold 1×PBS, incubated with Fc block (Human TruStain FcX, Biolegend, 422302, 1/20) for 15 min, incubated with antibodies for 20 min at 4° C. and washed before analysis using a BD LSRFortessa X-20. Macrophages were analyzed with an antibody panel consisting of antibodies against the following cell surface proteins: CD44, CD80, CD86 and TfR1. The data were analyzed with FlowJo software v. 10.0.00003. […]

[4] = tested on: HMLER CD44^high/CD24^low; test: Cell viability assay (CellTiter-Blue) on breast cancer stem cell model HMLER CD44high/CD24low; format: cell-based, human; conditions: for IC50: Homo sapiens, cell viability, 72 h treatment, read-out: IC50 against HMLER CD44^high/CD24^low
Description: Cell viability assay (IC50). Cell viability assay was carried out by plating 1000 cells/well in 96-well plates. Cells were treated for 72 h in a range between to 25 nM and […] using serial dilutions. The inventors followed the manufacturer's protocol. In brief, CellTiter-Blue® reagent (G8081, Promega) was added after 72 h treatment and cells were incubated for 3 h before recording fluorescence intensities (λex. 560/20 nm; λem. 590/10 nm) using a Perkin Elmer Wallac 1420 Victor2 Microplate Reader.
Cell culture. MCF7 (ATCC) cells, DU-145 (ATCC) cells and FC1245 cells were cultured in Dulbecco's Modified Eagle Medium GlutaMAX (DMEM, ThermoFisher Scientific, 61965059) supplemented with 10% Fetal Bovine Serum (FBS, Gibco, 10270-106) and Penicillin-Streptomycin mixture (BioWhittaker/Lonza, DE17-602E) unless stated otherwise. Primary lung circulating tumor cells (Celprogen, 36107-34CTC, Lot 219411) were grown using stem cell complete media (Celprogen, M36102-29PS) until the third passage. Circulating cancer cells were grown in stem cell ECM T75-flasks (Celprogen, E36102-29-T75) and ECM 6-well plates (Celprogen, E36102-29-6Well). HMLER cells ([…]) naturally repressing E-cadherin, obtained from human mammary epithelial cells infected with a retrovirus carrying hTERT, SV40 and the oncogenic allele H-rasV12, and HMLER CD44 and TFRC ko clones were cultured in DMEM/F12 (Thermo Fisher Scientific, 31331093) supplemented with 10% FBS (Thermo Fisher Scientific, 10270106), 10 μg/mL insulin (Sigma-Aldrich, 10516), 0.5 μg/mL hydrocortisone (Sigma-Aldrich, H0888) and 0.5 μg/mL puromycin (Life Technologies, A11138-02), unless stated otherwise. HMLER CD44^high cells were also supplemented with 10 ng/mL EGF (Miltenyi Biotech, 130-097-750).

| Compound | IC50 [1] [µM] | also measured |
| --- | --- | --- |
| N=C1NCCCCCCCCCCCCNC(=N)NC(=N)NCCCCCCCCCCCCNC(=N)N1 [Coronaformin-12,12] | 0.5 |  |
| [NH4+].[NH4+].[SH-].[SH-].[S]=[Mo]=[S] [ATTM] |  | efficacy on macrophage activation [2]: lack of efficacy |
| N=C1NCCCCCCCCCCNC(=N)NC(=N)NCCCCCCCCCCNC(=N)N1 [Coronaformin-10,10] | 1 |  |
| CC(C)(S)[C@@H](N)C(=O)O [D-Pen] |  | efficacy on macrophage activation [2]: lack of efficacy |
| CN(CCCCCCCCN(C)C(=N)NC(=N)N)C(=N)NC(=N)N [LCC-8Me] | 150 | Effect on CD86 macrophage activation marker (Flow cytometry) (% of activation marker compared to its level in activated macrophages) [3]: 89% |
| CN(C)C(=N)NC(=N)N [Metformin, 1,1-dimethylbiguanid hydrochloride, reference compound] | 10000 | IC50 [4]: 22600 µM |
| N=C1NCCCCCCCCNC(=N)NC(=N)NCCCCCCCCNC(=N)N1 [Coronaformin-8,8] | 3 |  |

The next lines start with results.

| IC50 [1] [µM] | Compound | also measured |
| --- | --- | --- |
| 2 | CCCNC(=N)NC(=N)NCCCCCCCCNC(=N)NC(=N)NCCC [LCC-8,3] |  |
| 0.6 | CCCNC(=N)NC(=N)NCCCCCCCCCCNC(=N)NC(=N)NCCC [LCC-10,3] | Effect on CD86 macrophage activation marker (Flow cytometry) (% of activation marker compared to its level in activated macrophages) [3]: 22% |
| 20 | N=C(N)NC(=N)NCCCCCCCCCCNC(=N)NC(=N)N [LCC-10] | improved IC50 compared with metformin ([4]; HMLER CD44high/CD24low): about 400 fold; IC50 [4]: 58 µM |
| 6 | CN(CCCCCCCCCCCCN(C)C(=N)NC(=N)N)C(=N)NC(=N)N [LCC-12Me] |  |
| 1 | CCNC(=N)NC(=N)NCCCCCCCCCCNC(=N)NC(=N)NCC [LCC-10,2] |  |
